Drawing on PubChem BioAssay AID652053 (Broad Institute, 2013), this text covers AC40 for 87 compounds.

SMILES strings stand for the structures.

The test deals with Huh7 psiCHECK-miR122 Renilla luciferase reporter, 48 h. In words: miR-122 inhibitors in Huh7 reporter cells, dose response, cell-based, Huh7 psiCHECK-miR122, Renilla luciferase, cherry-pick (AID 652053).
In the case of `O=C(c1ccccc1F)N1C[C@@H]2[C@H](c3ccccc31)[C@H](CO)N2C(=O)c1ccc(F)cc1`, the AC40 is 21 µM.

As to `Cc1cc(C)c(S(=O)(=O)NCc2ccccn2)cc1C`, the AC40 was 9.76 µM.

With `COc1ccc2oc(C(=O)N3CCc4ccccc43)c(C)c2c1`, the AC40 was 5.37 µM.

In the case of `CN(c1cccc(NC(=O)c2ccc(Cl)c(S(=O)(=O)Nc3ccccc3)c2)c1)S(C)(=O)=O`, the AC40 was 2.18 µM.

`COc1ccc(S(=O)(=O)N2CC[C@@H]3[C@@H](CO)N(C)c4ccc(-c5ccc(F)cc5)cc4[C@@H]32)cc1`: the AC40 was 6.93 µM.

Consider `C[C@@H]1CN([C@H](C)CO)C(=O)c2cc(NC(=O)Nc3ccccc3)ccc2O[C@@H]1CN(C)S(=O)(=O)c1ccc(Cl)cc1`, for which the AC40 was 5.33 µM.

`Cc1ccccc1OC1C(=O)N(Cc2ccc3c(c2)OCO3)C1c1sccc1C` (configuration not stated): the AC40 is 13.7 µM.

Consider `O=C(C(=O)N(Cc1ccccc1)Cc1ccccc1)c1c(-c2ccccc2)[nH]c2ccccc12`, for which the AC40 is 1 µM.

As to `CCOc1ccccc1N(CC(=O)N1CCCCCC1)S(=O)(=O)c1ccc(C)cc1`, the AC40 is 1.23 µM.

As for `Cc1ccc(-c2nnc(Nc3ccccc3)c3ccccc23)cc1S(=O)(=O)NCC1CCCO1` (configuration not stated), the AC40 is 0.63 µM.

Regarding `O=S(=O)(Nc1ncnc2c1oc1ccccc12)c1ccc(Cl)s1`, the AC40 was 18.8 µM.

On to `Cc1ccc(S(=O)(=O)Nc2cccc(S(=O)(=O)N3CCCC3)c2)cc1C`, for which the AC40 was 1.03 µM.

As for `COc1ccc(N(CC(=O)Nc2cc(C)on2)S(=O)(=O)c2cc(C)ccc2C)cc1`, the AC40 was 5.67 µM.

Turning to `C[C@@H]1CN([C@H](C)CO)C(=O)c2cccc(NC(=O)c3nc4ccccc4s3)c2O[C@@H]1CN(C)Cc1ccc(C(=O)Nc2ccccc2N)cc1`, the AC40 was 17.7 µM.

Turning to `O=C(NCCCN1CCCC1=O)c1cccc(S(=O)(=O)Nc2ccc(Br)cc2)c1`, the AC40 is 7.56 µM.

As to `CSc1ccc(S(=O)(=O)NC2CCCCCC2)cc1`, the AC40 is 1.72 µM.

In the case of `CCOc1cc(C)c(Cl)cc1S(=O)(=O)NCC1CCCO1` (configuration not stated), the AC40 is 1.2 µM.

Regarding `CCc1c(C(=O)Nc2cc(C)cc(C)c2)[nH]c(C)c1C(C)=O`, the AC40 is 14.8 µM.

As for `O=C(NNS(=O)(=O)c1ccc(Cl)cc1)c1cccc(S(=O)(=O)N2CCOCC2)c1`, the AC40 was 5.2 µM.

Take `CCCNC(=O)C[C@@H]1CC[C@H]2[C@H](COc3ccc(NC(=O)Nc4ccccc4F)cc3C(=O)N2C)O1`: the AC40 was 2.53 µM.

As to `CN1c2ccc(-c3cccc(F)c3)cc2[C@H]2[C@H](CCN2S(=O)(=O)c2cccc(F)c2)[C@H]1CO`, the AC40 was 6.4 µM.

Regarding `C[C@H](CO)N1C[C@H](C)[C@@H](CN(C)Cc2ccc(C(F)(F)F)cc2)Oc2c(NC(=O)c3nc4ccccc4s3)cccc2C1=O`, the AC40 was 2.32 µM.

On to `Cc1cc(C)cc(NS(=O)(=O)c2ccc(F)cc2)c1`, for which the AC40 was 10.9 µM.

For `COc1cccc(S(=O)(=O)Nc2ccc(C(O)(C(F)(F)F)C(F)(F)F)cc2)c1`, the AC40 is 4.24 µM.

As to `COc1cccc(C2(c3cccc(OC)c3)CC2C(=O)Nc2ccc(F)cc2)c1` (configuration not stated), the AC40 was 2.68 µM.

`OC(c1ccc(Cl)c(Cl)c1)c1ncc(-c2ccccc2F)[nH]1` (configuration not stated): the AC40 was 3.49 µM.

Regarding `Cc1ccc(C)c(S(=O)(=O)Nc2ccc(O)cc2)c1`, the AC40 was 8.22 µM.

For the compound `Cc1ccc(-c2cnc3c(c2)C(=O)N([C@H](C)CO)C[C@@H](C)[C@H](CN(C)Cc2ccccc2F)O3)cc1`, the AC40 was 2.64 µM.

For `O=S(=O)(Nc1ccc(Cl)cc1)c1cccc2cccnc12`, the AC40 is 4.21 µM.

As to `CC(=O)c1ccc(NS(=O)(=O)c2ccc3c(c2)N(C)CCO3)cc1`, the AC40 is 3.6 µM.

`CCOc1ccc(-c2cc(N)n(S(=O)(=O)c3ccc(OC)c(OC)c3)n2)cc1`: the AC40 was 4.11 µM.

For `COc1cc(NS(=O)(=O)c2ccc(C)c(C)c2)c(OC)cc1Cl`, the AC40 was 15.2 µM.

Turning to `OC(c1ccc(Cl)c(F)c1)c1ncc(-c2ccccc2F)[nH]1` (configuration not stated), the AC40 was 2.04 µM.

In the case of `CCCCCNS(=O)(=O)c1cc2c3c(c1)CCC(=O)N3CCC2`, the AC40 was 4.75 µM.

Turning to `Cc1ccc(S(=O)(=O)NCC[C@@H]2CC[C@@H](NC(=O)c3cnccn3)[C@H](CO)O2)cc1`, the AC40 was 10.2 µM.

For the compound `COc1ccc(S(=O)(=O)NCCN2CCOCC2)c2ccccc12`, the AC40 was 0.789 µM.

Regarding `COc1ccccc1NS(=O)(=O)c1cc(NC(=O)Nc2ccc(Cl)cc2Cl)ccc1N1CCCCC1`, the AC40 is 1.49 µM.

On to `O=S(=O)(Nc1cccc(-n2cnnn2)c1)c1cc(Br)ccc1Br`, for which the AC40 was 4.94 µM.

With `CC(C)Oc1ccc(C(=O)Nc2ccc(Cl)c(S(=O)(=O)Nc3ccc(Cl)cc3)c2)cc1`, the AC40 is 0.559 µM.

For `Cc1ccc(C)c(S(=O)(=O)Nc2cc3c4c(c2)CCC(=O)N4CCC3)c1`, the AC40 was 0.678 µM.

Turning to `C=C(C)CN(CC)C(=O)COc1ccc(S(=O)(=O)Nc2ccc(OC)cc2)cc1`, the AC40 was 7.78 µM.

For `Cc1cccc(S(=O)(=O)NC2CCCCCCC2)c1`, the AC40 is 3.27 µM.

As to `CCc1ccc(-c2cc(C)no2)cc1S(=O)(=O)NCCc1ccc(S(N)(=O)=O)cc1`, the AC40 was 4.08 µM.

`CCCNC(=O)NC[C@@H]1[C@@H](c2ccc(C3=CCCC3)cc2)[C@H](CO)N1C(=O)CC`: the AC40 is 5.75 µM.

Regarding `COc1cc(C)c(C(C)C)cc1S(=O)(=O)N1CCN(C)CC1`, the AC40 was 7.96 µM.

For `CC(=O)Nc1ccc(S(=O)(=O)Nc2cccc(-c3csc(C)n3)c2)cc1`, the AC40 is 8.21 µM.

For `COc1ccc(C(C)(C)C)cc1NS(=O)(=O)c1cccc2cccnc12`, the AC40 was 2.14 µM.

Turning to `CC(=O)c1cccc(NS(=O)(=O)c2cc(-c3cnc(C4CC4)o3)ccc2C)c1`, the AC40 is 6.63 µM.

In the case of `COc1ccc(NS(=O)(=O)c2cc(NC(=O)c3cnccn3)ccc2N2CCCC2)cc1`, the AC40 was 3.27 µM.

For the compound `Cc1cc(C)c(S(=O)(=O)Nc2cccc(S(=O)(=O)N3CCOCC3)c2)c(C)c1`, the AC40 was 2.71 µM.

Consider `Cc1ccc(C(C)C)cc1S(=O)(=O)NC1CC(C)(C)NC(C)(C)C1`, for which the AC40 was 8.18 µM.

On to `CN1C(=O)c2cc(NC(=O)Cc3ccccc3)ccc2OC[C@@H]2O[C@H](CC(=O)NCc3ccc(Cl)cc3)CC[C@@H]21`, for which the AC40 is < 0.26 µM.

For the compound `C[C@@H]1CN([C@@H](C)CO)C(=O)c2cccc(NC(=O)Nc3ccccc3)c2O[C@H]1CN(C)Cc1ccc(C(F)(F)F)cc1`, the AC40 is 2.49 µM.

Consider `C[C@H](CO)N1C[C@H](C)[C@@H](CN(C)Cc2ccc3c(c2)OCO3)Oc2c(NS(=O)(=O)c3ccc(Cl)cc3)cccc2C1=O`, for which the AC40 was 24.2 µM.

For the compound `CCN(CC)C(=O)CN(c1cc2c(cc1OC)oc1ccccc12)S(=O)(=O)c1ccccc1`, the AC40 is 1.69 µM.

On to `CC(C)c1ccc(NC(=S)NCc2cccs2)cc1`, for which the AC40 was 2.8 µM.

In the case of `COc1ccc(NS(=O)(=O)c2cc(NC(=O)[C@@H](NC(=O)c3ccccc3)C(C)C)ccc2C)cc1`, the AC40 is 2.3 µM.

Take `COc1ccc(OC)c(C2C3=C(COC3=O)Nc3cc4c(cc32)OCO4)c1` (configuration not stated): the AC40 is 17.7 µM.

`Cc1ccc(C(=O)Nc2ccccc2C(=O)O)cc1S(=O)(=O)Nc1ccccc1`: the AC40 was 2.74 µM.

For `O=C(c1ccc(F)cc1)N1C[C@@H]2[C@H](c3ccccc31)[C@H](CO)N2C(=O)c1ccc(F)cc1`, the AC40 is 2.35 µM.

In the case of `COc1cc(NS(=O)(=O)c2ccc(Br)s2)cc(OC)c1`, the AC40 was 5.31 µM.

Turning to `O=S(=O)(Nc1ccc(Cl)cc1)c1cccc2nsnc12`, the AC40 is 14.8 µM.

For the compound `COCC#Cc1ccc2c(c1)O[C@H](CN(C)S(=O)(=O)c1ccc(OC)cc1)[C@H](C)CN([C@H](C)CO)S2(=O)=O`, the AC40 was 5.8 µM.

On to `Cc1ccc(S(=O)(=O)Nc2ccc3c4c(cccc24)CC3)c(C)c1`, for which the AC40 is 6.8 µM.

As to `CSc1nc(-c2ccc(C)cc2)[nH]c1S(=O)(=O)c1ccccc1`, the AC40 is 15.9 µM.

For the compound `C[C@H]1CN([C@@H](C)CO)S(=O)(=O)c2ccc(C#CCN(C)C)cc2O[C@@H]1CN(C)Cc1ccc2c(c1)OCO2`, the AC40 is 3.68 µM.

Regarding `COc1ccccc1S(=O)(=O)Nc1cccc(S(=O)(=O)N2CCCC2)c1`, the AC40 was 1.26 µM.

As to `CC(=O)N1CC(C)Sc2ccc(S(=O)(=O)NCc3ccc(F)cc3)cc21` (configuration not stated), the AC40 was 4.49 µM.

Turning to `CCc1c(C(=O)NC2CCCc3ccccc32)[nH]c(C)c1C(C)=O` (configuration not stated), the AC40 is 9 µM.

Regarding `O=C(c1ccc(F)cc1)N1C[C@H]2[C@@H](c3ccccc31)[C@@H](CO)N2C(=O)c1ccc(F)cc1`, the AC40 is 1.59 µM.

As for `Cc1ccc(NS(=O)(=O)c2cc(C(=O)N3CCN(C)CC3)ccc2C)cc1C`, the AC40 is 25.1 µM.

For the compound `COc1ccccc1N/C(=N/S(=O)(=O)c1ccc(C)cc1)c1ccccc1`, the AC40 is 9.99 µM.

As for `O=C1NC(c2cccc3ccccc23)Nc2ccccc21` (configuration not stated), the AC40 is 5.65 µM.

Regarding `COc1ccc(S(=O)(=O)N(CCc2ccccc2)CC(=O)N2CCOCC2)cc1`, the AC40 was 17.1 µM.

`COc1ccc(NS(=O)(=O)c2cc(-c3cnc(C4CC4)o3)ccc2C)cc1`: the AC40 is 5.35 µM.

As for `CC(C)NC(=O)Nc1ccc2c(c1)CC(=O)N([C@H](C)CO)C[C@H](C)[C@H](CN(C)Cc1ccc(C(=O)Nc3ccccc3N)cc1)O2`, the AC40 is 14.2 µM.

`O=S(=O)(c1ccccc1)c1cc(O)ccc1O`: the AC40 is 11.5 µM.

On to `Cc1cc(C(=O)Nc2cccc3c2O[C@@H](CN(C)CC2CCCCC2)[C@@H](C)CN([C@@H](C)CO)C3=O)n(C)n1`, for which the AC40 is 5.85 µM.

Turning to `Cc1cc(S(=O)(=O)Nc2cccc(Cl)c2)c(C)s1`, the AC40 was 0.486 µM.

With `CCc1ccc(OC)c(S(=O)(=O)Nc2ccccc2C)c1`, the AC40 was 1.03 µM.

In the case of `CCOC(=O)c1c(C)[nH]c(C)c1S(=O)(=O)NCCc1ccc(SC)cc1`, the AC40 is 0.686 µM.

In the case of `CCn1cc(S(=O)(=O)CC(=O)Nc2ccc(C)cc2)c2ccccc21`, the AC40 was 15.1 µM.

Regarding `COc1cccc(NS(=O)(=O)c2cc(C)sc2C)c1`, the AC40 is 1.43 µM.

For the compound `C[C@@H]1CN([C@H](C)CO)C(=O)Cc2cc(NS(=O)(=O)c3ccc(Cl)cc3)ccc2O[C@@H]1CN(C)C(=O)Nc1ccc(C(F)(F)F)cc1`, the AC40 is 6.38 µM.

As to `Cc1ccc(C)c(S(=O)(=O)Nc2ccc(C(=O)N3CCCCC3)cc2)c1`, the AC40 was 3.58 µM.

For `C[C@@H]1CN([C@H](C)CO)C(=O)c2cc(N(C)C)ccc2O[C@@H]1CN(C)S(=O)(=O)c1ccc(Cl)cc1`, the AC40 was 6.57 µM.

Regarding `CCCNC(=O)NC[C@@H]1[C@@H](c2ccc(C3=CCCCC3)cc2)[C@H](CO)N1C(C)=O`, the AC40 is 2.47 µM.
